Laboratory results: ChEMBL document CHEMBL1137758, “Biphenyl C-cyclopropylalkylamides: New scaffolds for targeting estrogen receptor beta” (Bioorg Med Chem Lett, 2009)

Columns and labels:
Estrogen receptor beta [1] = target: T1, Estrogen receptor beta (Homo sapiens, UniProt Q92731); assay: Displacement of fluorescein-labeled estradiol from human recombinant ERbeta at 0.2 uM by fluorescence polarization assay
[2] = target: T2, Estrogen receptor (Homo sapiens) (UniProt P03372); assay: Displacement of fluorescein-labeled estradiol from human recombinant ERalpha at 5 uM by fluorescence polarization assay
T2 sequence (whole entry): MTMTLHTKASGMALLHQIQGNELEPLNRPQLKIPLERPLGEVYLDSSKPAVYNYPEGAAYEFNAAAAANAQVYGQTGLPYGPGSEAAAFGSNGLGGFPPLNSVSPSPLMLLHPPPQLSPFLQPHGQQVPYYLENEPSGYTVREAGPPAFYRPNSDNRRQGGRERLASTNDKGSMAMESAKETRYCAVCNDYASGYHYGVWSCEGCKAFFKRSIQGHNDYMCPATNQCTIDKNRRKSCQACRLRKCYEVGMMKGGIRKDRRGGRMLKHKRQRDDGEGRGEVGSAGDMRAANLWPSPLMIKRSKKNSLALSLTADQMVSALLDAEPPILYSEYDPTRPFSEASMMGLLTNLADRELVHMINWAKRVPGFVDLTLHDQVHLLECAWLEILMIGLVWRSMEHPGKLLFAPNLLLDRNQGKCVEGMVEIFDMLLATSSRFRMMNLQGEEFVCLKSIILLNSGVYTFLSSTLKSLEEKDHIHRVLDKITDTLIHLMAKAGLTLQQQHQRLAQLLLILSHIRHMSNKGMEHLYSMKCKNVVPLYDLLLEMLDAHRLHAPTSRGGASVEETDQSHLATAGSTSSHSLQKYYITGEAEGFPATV

Estrogen receptor beta [3] = target: T1, Estrogen receptor beta; assay: Displacement of fluorescein-labeled estradiol from human recombinant ERbeta at 5 uM by fluorescence polarization assay
[4] = target: T2, Estrogen receptor (Homo sapiens); assay: Displacement of fluorescein-labeled estradiol from human recombinant ERalpha at 0.2 uM by fluorescence polarization assay
[5] = target: T2, Estrogen receptor (Homo sapiens); assay: Displacement of fluorescein-labeled estradiol from human recombinant ERalpha at 1 uM by fluorescence polarization assay
Estrogen receptor beta [6] = target: T1, Estrogen receptor beta; assay: Displacement of fluorescein-labeled estradiol from human recombinant ERbeta at 1 uM by fluorescence polarization assay

T1 sequence (Q92731 whole entry): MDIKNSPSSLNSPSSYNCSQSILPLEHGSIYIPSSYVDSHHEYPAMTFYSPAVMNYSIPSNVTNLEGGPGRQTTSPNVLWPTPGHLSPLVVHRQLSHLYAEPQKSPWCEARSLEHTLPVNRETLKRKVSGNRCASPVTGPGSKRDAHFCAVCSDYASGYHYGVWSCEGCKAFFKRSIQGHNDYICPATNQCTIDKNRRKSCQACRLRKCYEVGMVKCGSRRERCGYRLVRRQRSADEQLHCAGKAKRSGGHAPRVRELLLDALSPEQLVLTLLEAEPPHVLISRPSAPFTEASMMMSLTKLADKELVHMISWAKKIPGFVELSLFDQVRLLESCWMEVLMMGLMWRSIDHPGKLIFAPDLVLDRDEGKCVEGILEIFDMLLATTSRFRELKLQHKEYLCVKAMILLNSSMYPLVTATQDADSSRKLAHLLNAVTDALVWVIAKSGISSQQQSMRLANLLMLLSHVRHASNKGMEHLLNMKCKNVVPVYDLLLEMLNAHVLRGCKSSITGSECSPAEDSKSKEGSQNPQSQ

Row | SMILES | Activity (Estrogen receptor beta [1]) [%] | Activity [2] [%] | Activity (Estrogen receptor beta [3]) [%] | Activity [4] [%] | Activity [5] [%] | Activity (Estrogen receptor beta [6]) [%]
1 | CCC/C=C(\CCC)[C@@H](NP(=O)(c1ccccc1)c1ccccc1)c1ccc(C(F)(F)F)cc1 | 8 | 79 | 27 | 55 | 65 | 16
2 | CCCC[C@@H]1C[C@H]1[C@@H](NC(=O)c1ccco1)c1ccc(C(F)(F)F)cc1 | 0 | 57 | 22 | 6 | 15 | 2
3 | CCC/C=C(\CCC)[C@@H](NS(=O)(=O)c1ccc(-c2ccccc2)cc1)c1ccc(C(=O)OC)cc1 | 6 | 54 | 16 | -69 | 47 | 12
4 | CCC/C=C(\CCC)[C@@H](NC(=O)c1ccco1)c1ccc(C(=O)OC)cc1 | -4 | 76 | 15 | 36 | 58 | -4
5 | CCCC[C@@H]1C[C@H]1[C@@H](NC(=O)C(C)(C)C)c1ccc(C(F)(F)F)cc1 | -2 | 56 | 7 | 40 | 39 | -4
6 | CCC/C=C(\CCC)[C@@H](NS(=O)(=O)c1ccccc1Cl)c1ccc(C(=O)OC)cc1 | 15 | 98 | 40 | 61 | 92 | 32
7 | CCCC[C@@H]1C[C@H]1[C@@H](NC(=O)c1ccccc1)c1ccc(C(F)(F)F)cc1 | -9 | 48 | 13 | 32 | 33 | 1
8 | CCCC[C@@H]1C[C@H]1[C@@H](NC(=O)Cc1ccccc1)c1ccc(-c2ccccc2)cc1 | 2 | 28 | 14 | 47 | 33 | 8
9 | CCC/C=C(\CCC)[C@@H](NP(=O)(c1ccccc1)c1ccccc1)c1ccc(-c2ccccc2)cc1 | 19 | -77 | -25 | 46 | 11 | -10
10 | CCC/C=C(\CCC)[C@@H](NS(=O)(=O)c1cccc2cccnc12)c1ccc(C(=O)OC)cc1 | 7 | 54 | 42 | 54 | 111 | 24
11 | CCC/C=C(\CCC)[C@@H](NC(=O)C(C)(C)C)c1ccc(C(=O)OC)cc1 | 1 | 63 | 10 | 27 | 42 | -4
12 | CCC[C@@H]1C[C@@]1(CCC)[C@@H](NS(=O)(=O)c1cccc2cccnc12)c1ccc(-c2ccccc2)cc1 | 15 | 88 | 29 | 58 | 70 | 17
13 | CCCCCC/C=C(\C)[C@@H](NC(=O)c1ccc(C(F)(F)F)cc1)c1ccc(-c2ccccc2)cc1 | -7 | 1 | -3 | 29 | 20 | -6
14 | C=C(CCCC)[C@@H](NC(=O)C(C)(C)C)c1ccccc1 | -10 | 13 | -4 | -67 | 13 | -12
15 | CCC/C=C(\CCC)[C@@H](NS(=O)(=O)c1ccc(C(Cl)(Cl)Cl)cc1)c1ccccc1 | 6 | 95 | 42 | 42 | 61 | 13
16 | CCC/C=C(\CCC)[C@@H](NC(=O)c1cccs1)c1ccc(C(=O)OC)cc1 | 5 | 86 | 31 | 48 | 73 | 13
